Results reported in paper PMC12691669, “Inhibitors of the 20S proteasome β5 subunit as potent and selective agents against Trichomonas vaginalis” (Antimicrobial Agents and Chemotherapy, 2025).
Entries after “also recorded” stand apart in the source; their conditions may differ. Like-named read-outs stand apart in the source and are kept apart here.

Assays:
[1] = molecular target: T. vaginalis Tv20S proteasome β5 subunit (Trichomonas vaginalis, UniProt A2DD57+A2F716); test: biochemical; format: biochemical
Sequence of T. vaginalis Tv20S proteasome β5 subunit (A2DD57 entry or part of it): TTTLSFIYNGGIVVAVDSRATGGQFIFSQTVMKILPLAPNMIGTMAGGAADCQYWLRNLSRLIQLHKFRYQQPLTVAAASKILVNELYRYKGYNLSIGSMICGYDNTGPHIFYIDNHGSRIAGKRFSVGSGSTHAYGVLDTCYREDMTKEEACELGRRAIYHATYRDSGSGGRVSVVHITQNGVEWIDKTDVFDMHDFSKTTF
Sequence of T. vaginalis Tv20S proteasome β5 subunit (A2F716 entry or part of it): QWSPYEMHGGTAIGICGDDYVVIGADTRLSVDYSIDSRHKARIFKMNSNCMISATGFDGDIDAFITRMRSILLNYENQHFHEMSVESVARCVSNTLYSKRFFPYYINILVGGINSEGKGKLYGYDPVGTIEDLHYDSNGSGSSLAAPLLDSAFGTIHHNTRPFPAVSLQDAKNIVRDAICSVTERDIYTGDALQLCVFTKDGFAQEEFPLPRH
Protocol: (§1) The T. vaginalis proteasome was expressed in recombinant form as previously described ([27]). Briefly, Spodoptera frugiperda cells were co-infected with three baculovirus vectors carrying the T. vaginalis genes for the 7 α-subunits, 7 β-subunits, and the Ump-1 chaperone, respectively. The resulting proteasome complex was purified from cell lysates via streptavidin column and size exclusion chromatography and stored at −80°C. Purified human c20S proteasome and recombinant human proteasome activator PA28α ([21]) were obtained from Bio-Techne and stored at −80°C. Dilutions of the test agents were transferred to 384-well plates (Greiner Bio-One) in triplicate wells using an Echo 650 Acoustic Liquid Handler (Beckman Coulter). Six replicate plates were prepared for each compound for testing with three T. vaginalis-optimized substrates and three human-optimized substrates. After dispensing, plates were sealed and stored at −20°C. The following fluorescent substrates and final substrate concentrations were used to assay subunit activities of the T. vaginalis proteasome (Tv20S) ([28]) or the human constitutive proteasome (c20S) ([19], [52]): Ac-RYFD-amc (Genscript) at 100 µM for Tv20S β1 subunit, Ac-FRSR-amc (Genscript) at 20 µM for Tv20S β2 subunit, Ac-GWYL-amc (Genscript) at 20 µM for Tv20S β5 subunit, z-LLE-amc (R&D Systems) at 80 µM for c20S β1 subunit, z-VLR-amc (AdipoGen Life Sciences) at 30 µM for c20S β2 subunit, and suc-LLVY-amc (R&D Systems) at 65 µM for c20S β5 subunit. Substrates and proteasomes were diluted in an assay buffer consisting of HEPES pH 7.5 and 1 mM DTT. For the human proteasome assays, 2 nM c20S was incubated at room temperature with 200 nM PA28α for 1 h to activate the complex prior to addition to the 384-well plates containing the substrate-inhibitor mixtures. […] Both proteasomes were added to the wells at a 1 nM final assay concentration. Fluorescence was measured over 4 h at 360 nm excitation and 460 nm emission on a Biotek Synergy HTX plate reader.

[2] = molecular target: T1, Human c20S proteasome β1 subunit (Homo sapiens, UniProt P28072+Q99436); test: In vitro proteasome assay, z-LLE-amc substrate; format: biochemical; settings: purified human c20S with PA28α, mean ± SD; for IC50: read-out: Human c20S proteasome inhibition of β1 subunit (IC50)
T1 construct: purchased Bio-Techne
Protocol: as §1

[3] = molecular target: T2, Human c20S proteasome β2 subunit (Homo sapiens, UniProt P49720+Q99436); test: In vitro proteasome assay, z-VLR-amc substrate; format: biochemical
T2 construct: purchased Bio-Techne
Protocol: as §1

[4] = test system: T. vaginalis Tv20S proteasome β2 subunit; test: In vitro proteasome assay, Ac-FRSR-amc substrate; format: biochemical, Trichomonas vaginalis; settings: recombinant Tv20S, mean ± SD of three experiments; for IC50: read-out: Tv20S proteasome inhibition of β2 subunit (IC50)
Protocol: as §1

[5] = molecular target: T. vaginalis Tv20S proteasome β1 subunit (Trichomonas vaginalis, UniProt A2E7Z2); test: In vitro proteasome assay, Ac-RYFD-amc substrate; format: biochemical; settings: recombinant Tv20S, mean ± SD of three experiments
Sequence of T. vaginalis Tv20S proteasome β1 subunit (A2E7Z2 entry or part of it): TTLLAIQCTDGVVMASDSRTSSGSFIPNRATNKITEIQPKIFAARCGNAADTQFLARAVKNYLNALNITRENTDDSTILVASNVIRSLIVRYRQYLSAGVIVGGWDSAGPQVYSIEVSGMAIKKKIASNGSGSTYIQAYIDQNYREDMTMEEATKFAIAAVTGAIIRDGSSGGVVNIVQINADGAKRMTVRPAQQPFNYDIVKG
Protocol: as §1

[6] = molecular target: T3, Human c20S proteasome β5 subunit (Homo sapiens, UniProt P20618+P28074); test: In vitro proteasome assay, suc-LLVY-amc substrate; format: biochemical; settings: purified human c20S with PA28α, mean ± SD
T3 construct: purchased Bio-Techne
Protocol: as §1

[7] = test system: T. vaginalis strain F1623; test: 24 h growth and survival assay (ATP luminescence, GI50); format: cell-based, Trichomonas vaginalis; settings: for SI (ratio of GI50 in HeLa cells over GI50 in T. vaginalis): T. vaginalis F1623 vs human HeLa cells
Protocol: The following T. vaginalis strains were used: F1623 ([50]), G3 (ATCC PRA-98), and LA1 ([25]). […] Drug susceptibility assays were performed as described previously ([23]) with several minor modifications. Briefly, 10 mM stocks of the test compounds in DMSO were serially diluted 1:3 using an Echo 650 Acoustic Liquid Handler (Beckman Coulter). Subsequently, trophozoites (5 × 10^3/well) in TYM modified media were added to the wells in 384-well plates, and cultures were incubated for 24 h at 37°C under anaerobic conditions (AnaeroPack-Anaero System; Remel). For testing in mammalian cells, the following cell lines were used: Human cervical cancer cells HeLa (ATCC CCL-2), non-transformed mouse fibroblast cell line 3T3-L1 (ATCC CL-173), normal monkey kidney epithelial cell line Vero (ATCC CCL-81), and human B lymphoma cells Raji (ATCC CCL-86). Test compounds were serially diluted (1:3) and added to mammalian cell cultures grown in 384-well plates, and cultures were incubated for 48 h at 37°C in 5% CO2, 95% air. Growth and viability of T. vaginalis and mammalian cells were determined with an ATP assay by adding the BacTiter-Glo Microbial Cell Viability Assay reagent (Promega) directly to the wells and measuring ATP-dependent luminescence in a microplate reader. […] Experiments were repeated at least three times, and the mean and SEM of the pGI50 values were calculated.

[8] = purified human c20S with PA28α, mean ± SD, read-out: Human c20S proteasome inhibition of β2 subunit (IC50)
[9] = recombinant Tv20S, mean ± SD of three experiments, read-out: Tv20S proteasome inhibition of β5 subunit (IC50)
[10] = read-out: Human c20S proteasome inhibition of β5 subunit (IC50)
[11] = purified human c20S with PA28α, mean ± SD
[12] = relative to parental compound 4

SMILES | Tv20S proteasome inhibition of β2 subunit (IC50) [4] | IC50 [1, 9] | Tv20S proteasome inhibition of β1 subunit (IC50) [5] | IC50 [6, 10] | SI (ratio of GI50 in HeLa cells over GI50 in T. vaginalis) [7] | Human c20S proteasome inhibition of β1 subunit (IC50) [2] | also measured
C[C@@]12OC(=O)[C@]1([C@@H](O)[C@@H]1C=CCCC1)NC(=O)[C@@H]2CCCl [18 (MZB), marizomib, reference compound] | No inhibition | – | – | – | – | – | IC50 ([1]; Tv20S proteasome inhibition of β5 subunit (IC50), recombinant Tv20S, mean ± SD of three experiments): 0.88 ± 0.11 nM; IC50 [2]: 66.5 ± 11.7 nM; IC50 [3, 8]: 46.7 ± 11.2 nM
CCCCCC(=O)N[C@H](C(=O)N[C@@H](CCS(C)(=O)=O)C(=O)N[C@@H](CC(C)C)C(=O)[C@@]1(C)CO1)C(C)C [38 (CPB), carmaphycin B, reference compound] | – | 1.51 ± 0.69 nM | Activation | 7.92 ± 0.72 nM | – | – | β5 SI ratio (c20S/Tv20S) [1]: 5.25; IC50 [2]: 895 ± 510 nM; IC50 [3, 8]: 14.6 ± 0.83 nM; IC50 [4]: 440 ± 101 nM
CC(C)C[C@H](NC(=O)[C@H](Cc1ccccc1)NC(=O)c1cnccn1)B(O)O [43 (BTZ), bortezomib, reference compound] | – | – | – | – | – | – | IC50 ([1]; read-out: Tv20S proteasome inhibition of β5 subunit (IC50)): 21.6 ± 1.69 nM; IC50 [4]: 30.8 ± 19.9 nM
COc1ccc(CC(NC(=O)C(C)NC(=O)CN2CCOCC2)C(=O)NC(Cc2ccc(-c3ccccc3)cc2)C(=O)C2(C)CO2)cc1 (stereo not drawn) [compound 3] | No inhibition | 12 ± 1.94 nM | Activation | – | 36.3 | No inhibition | IC50 [3]: 271 ± 26.4 nM; IC50 ([6]; Human c20S proteasome inhibition of β5 subunit (IC50)): 18.1 ± 3.26 nM
CCCCC(=O)N[C@@H](Cc1ccc(O)cc1)C(=O)N[C@@H](CCCC)C(=O)N[C@@H](Cc1ccccc1)C(=O)[C@@]1(C)CO1 [compound 5] | No inhibition | 2.43 ± 0.39 nM | Activation | 1.06 ± 0.08 nM | – | No inhibition | IC50 [3, 8]: 68.2 ± 13 nM
CCCCCC(=O)N[C@@H](CO)C(=O)N[C@@H](CCCC)C(=O)N[C@@H](Cc1ccccc1)C(=O)[C@@]1(C)CO1 [compound 19] | No inhibition | 21 ± 2.47 nM | Activation | 8.16 ± 1.8 nM | – | No inhibition | IC50 [3, 8]: 2160 nM
CC(C)CC(NC(=O)C(CC12CC3CC(CC(C3)C1)C2)NC(=O)c1cnccn1)B(O)O (stereo not drawn) [compound 32] | – | – | – | – | 1.02 | – | –
COc1ccc(C[C@H](NC(=O)[C@H](C)NC(=O)CN2CCOCC2)C(=O)N[C@@H](Cc2ccc3ccccc3c2)C(=O)[C@@]2(C)CO2)cc1 [compound 35] | – | – | – | – | 3.47 | – | –
CCCC[C@H](NC(=O)[C@H](CC(=O)N1CCCC1)NC(=O)[C@H](Cc1ccc(OC)cc1)N1CCCC1=O)C(=O)N[C@@H](Cc1ccc(F)cc1F)C(=O)[C@@]1(C)CO1 [compound 45] | No inhibition | 82.6 ± 32.1 nM | Activation | 1010 nM | – | No inhibition | Human c20S proteasome inhibition of β2 subunit (IC50) [3, 11]: No inhibition
CSc1ccc(CC(=O)NC(C(=O)NC(Cc2c(F)c(F)c(F)c(F)c2F)C(=O)N[C@@H](CC(C)C)C(=O)[C@@]2(C)CO2)C(C)C)cc1 (stereo partly drawn) [compound 50] | No inhibition | 9.25 ± 1.81 nM | Activation | 13.8 ± 4.21 nM | – | No inhibition | IC50 [3, 8]: 64.7 ± 8.19 nM
COc1ccc(C[C@H](NC(=O)[C@H](C)NC(=O)C2=C(C)c3ccccc3C2)C(=O)N[C@@H](Cc2ccc(-c3ccccc3)cc2)C(=O)[C@]2(C)CO2)cc1 [compound 60] | – | – | – | – | 8.13 | – | –
COc1ccc(C[C@H](NC(=O)[C@H](C)NC(=O)C2=C(C)c3ccccc3C2)C(=O)N[C@@H](Cc2ccccc2)C(=O)[C@@H]2CO2)cc1 [compound 66] | – | – | – | – | 2.69 | – | loss in selectivity [7, 12]: ~ 10 fold; reduction in activity against T. vaginalis [7, 12]: ~ 50 fold
CCCCCC(=O)N[C@H](CC(=O)N[C@@H](CCCC)C(=O)N[C@@H](Cc1ccc(F)cc1F)C(=O)[C@@]1(C)CO1)CC(=O)OC(C)(C)C [compound 75] | No inhibition | 172 ± 91.7 nM | Activation | – | – | No inhibition | Human c20S proteasome inhibition of β2 subunit (IC50) [3, 11]: No inhibition; Human c20S proteasome inhibition of β5 subunit (IC50) [6]: no measurable c20S β5 inhibitory activity; also recorded: No inhibition
CCCCC(=O)N[C@H](Cc1c[nH]c2ccccc12)C(=O)N[C@@H](Cc1c[nH]c2ccccc12)C(=O)N[C@@H](Cc1ccccc1)C(=O)[C@]1(C)CO1 [compound 91] | No inhibition | 2.52 ± 1.05 nM | Activation | 8.81 ± 0.69 nM | – | No inhibition | –
CCCCCC(=O)N[C@H](CCC(=O)OC(C)(C)C)CC(=O)N[C@@H](CCCC)C(=O)N[C@@H](Cc1ccccc1)C(=O)[C@@]1(C)CO1 [compound 94] | – | – | – | – | 3.16 | – | growth inhibitory activity against T. vaginalis (in words) ([7]; F1623): lacked activity and selectivity
COc1ccc(C[C@H](NC(=O)[C@H](C)NC(=O)CN2CCOCC2)C(=O)N[C@@H](CC2CCCCC2)C(=O)[C@@]2(C)CO2)cc1 [compound 156] | – | – | – | – | 0.83 | – | –
COc1ccc(C[C@H](NC(=O)[C@H](C)NC(=O)CN2CCOCC2)C(=O)N[C@@H](CC2CCC(C3CCCCC3)CC2)C(=O)[C@@]2(C)CO2)cc1 (stereo partly drawn) [compound 197] | – | – | – | – | < 0.71 | – | –
COc1ccc(C[C@H](NC(=O)[C@H](C)NC(=O)CN2CCOCC2)C(=O)N[C@@H](CC2CCC(c3ccccc3)CC2)C(=O)[C@@]2(C)CO2)cc1 (stereo partly drawn) [compound 201] | – | – | – | – | < 0.72 | – | –
